Here are results for 7 molecules from patent US20210393785A1, “Nucleic acid nanocarrier drug and preparation method thereof” (BAI YAO ZHI DA (BEIJING) NANOBIO TECHNOLOGY CO., LTD., priority 2018, published 2021).

Several values for one entry are separate records, joined by “and”; a condition that tells them apart may be missing. Identical values can stand only once.

For data set [1], the system named is LN-229 cells. The experiment in a line: Cytotoxicity in LN-229 cells. Format: cell-based. To be noted: 96 hours.
Description: 2) adjusting the cell density to 2.22×10^4/mL with a growth medium;
6) taking out the cell culture plate, and adding 10 μL/well of 10× concentration drug working solution to the corresponding wells of the cell culture plate, herein three replicate holes are made for each concentration, and the final drug action concentration is shown in Table 46 below;
8) placing the CellTiter 96® AQueous One Solution reagent at the room temperature and thawing for 90 minutes or thawing in a water bath at 37 DEG C., and then equilibrating at the room temperature for 30 minutes;
9) adding 50 μL/well of the CellTiter 96® AQueous One Solution reagent to the cell culture plate; […]
11) using the microplate reader to read a OD490 value of each well in the cell plate; and […]
The subject of data set [2] is HepG2 cells. The experiment in a line: Cytotoxicity in HepG-2 cells (CellTiter-Glo). Format: cell-based, human. To be noted: 96 hours. How it is done: 1) Harvesting cells in a logarithmic growth phase, taking a small amount and staining with trypan blue for counting to ensure that the cell viability reaches more than 80%;
(§1) 3) planting 90 μL/well of cell suspension into the 96-well plate, herein the number of cells per well in the plate is 2000;
4) placing the planted cell plate in the incubator at 37 DEG C. and incubating overnight under conditions of 5% CO2 and 95% humidity;
(§2) 5) performing 3.16-fold gradient dilution on the compound at 9 concentration points;
6) taking out the cell culture plate, and adding 10 μL/well of 10× concentration drug working solution to the corresponding wells of the cell culture plate, herein three replicate holes are made for each concentration, and the final drug action concentration is shown in Table 56 below;
(§3) 7) placing the cell culture plate in the incubator and continuously incubating for 96 hours;
8) placing the CellTiter-Glo reagent and the drug treatment cell culture plate at the room temperature and equilibrating for 30 minutes;
9) adding 50 μL of the CellTiter-Glo reagent to each well;
10) shaking in the orbital shaker for 2 minutes so that the cells are adequately lysed;
11) placing the cell culture plate at the room temperature and equilibrating for 10 minutes, reading a chemiluminescence value by using EnVision; and
12) data processing and analysis.
GraphPad Prism 5.0 software is used to process data graphically. Nonlinear S-curve regression is used to fit the data to obtain a dosage-effect curve, and an IC50 value is calculated from this.
Cell survival rate (%)=(Lumdrug to be tested−Lummedium control)/(Lumcell control−Lummedium control)×100%.
Lumcell control-Lummedium control is set to 100%, and a LumMedium control value is set to 0%.
(In general: ATP-based viability assays read luminescence as a measure of living cells.)

Data set [3] has as its system SGC-7901 cells. The experiment in a line: Cytotoxicity in SGC-7901 cells (CellTiter 96 AQueous One, OD490). Format: cell-based, human. The conditions noted are these: 96 hours. How it is done:
(§4) 1) Harvesting cells in a logarithmic growth phase, taking a small amount and staining with trypan blue for counting to ensure that the cell viability reaches more than 98%;
as §1
(§5) 4) placing the planted cell plate in the incubator at 37 DEG C. and incubating overnight;
as §2
6) taking out the cell culture plate, and adding 10 μL/well of 10× concentration drug working solution to the corresponding wells of the cell culture plate, herein three replicate holes are made for each concentration, and the final drug action concentration is shown in Table 76 below;
as §3
8) placing the CellTiter 96® AQueous One Solution reagent at the room temperature and thawing for 90 minutes or thawing in a water bath at 37 DEG C., and placing at the room temperature and equilibrating for 30 minutes; […]
(§6) 11) using a microplate reader to read a OD490 value of each well in the cell plate; and […]
(§7) GraphPad Prism 5.0 software is used to process data graphically. […] A calculation formula of the survival rate is as follows, the IC50 may be automatically calculated in GraphPad Prism 5.0. […]

Data set [4] has as its system Hela cells. Nature of the data set: Cytotoxicity in Hela cells (CellTiter 96 AQueous One, OD490). The conditions noted are these: Homo sapiens, 72 hours. The format is cell-based. How it is done:
as §4
3) planting 90 μL/well of cell suspension into the 96-well plate, herein the number of cells per well in the plate is 5000;
as §5, §2
6) taking out the cell culture plate, and adding 10 μL/well of 10× concentration drug working solution to the corresponding wells of the cell culture plate, herein three replicate holes are made for each concentration, and the final drug action concentration is shown in Table 66 below;
7) placing the cell culture plate in the incubator and continuously incubating for 72 hours;
8) placing the CellTiter 96® AQueous One Solution reagent at the room temperature and thawing for 90 minutes or thawing in a water bath at 37 DEG C., placing at the room temperature and equilibrating for 30 minutes; […]
as §6, §7

Data set [5] concerns HepG2 cells. The experiment in a line: CCK8 toxicity of DNA nanoparticles and carrier drugs to HepG2. Format: cell-based. The conditions noted are these: Homo sapiens, 72 hours. How it is done: A CCK8 method is used to detect the toxicity of DNA nanoparticles and carrier drugs to HepG2.
1. HepG2 cells in a logarithmic growth phase are taken, trypan blue is used for staining and the cell viability is counted to be 98.3%, plating is performed with 5000 Cell/well, a volume is 100 μL/well, 8 96-well plates are paved with 57 wells per plate, and it is incubated overnight at 37 DEG C.
2. A sample to be tested is diluted according to the following table and added: the original culture medium is removed and 100 μL of a culture medium of the sample to be tested with the different concentration is added, and there are 3 replicate wells in each group.
In the present embodiment, the loaded drug and the blank carrier are firstly prepared into 100 μM of stock solution by using the PBS, and then diluted with the complete culture medium (biotin-free DMEM). The original drug doxorubicin is firstly prepared into 100 μM of stock solution by the DMSO, and then diluted with the complete culture medium (biotin-free DMEM). The DMSO is directly diluted with the complete medium (biotin-free DMEM).
3. […]
6. A microplate reader is used to measure an absorbance at 450 nm.
7. Calculation: cell viability (%)=(OD experimental group-OD blank group)×100%/(OD control group-OD blank group), IC50 is calculated by Graph Pad Prism 5.0.

Data set [6] can be described thus: Particle size measurement (DLS hydrodynamic size). Format: physicochemical. The text has this: 1. Preparing a potential sample (conventional-sequence DNA self-assembly product D-7) and putting into a sample pool, opening a sample pool cover of an instrument, and placing the instrument; […]
4. clicking Ok to complete the settings, while a measurement dialog box appears, clicking Start to start, a DLS measurement value result of a hydrodynamic size of the self-assembly product D-7 is as follows: […]

As usually defined, the IC50 is the midpoint of a concentration-inhibition curve. A high value points to a need for much substance. As to `N.N.[Cl][Pt][Cl]` [Cisplatin], the IC50 in data set [1] turned out to be 12.5 µM; in data set [2] it was 3.99 µM. In addition, the “Inhibition rate of cell proliferation at highest concentration itself” value in data set [2] (highest concentration of each sample (Table 56: 100 μM, DNAh-Bio-Cy5 4.9 μM)) is recorded as 99.36%. `CC[C@]1(O)C[C@H]2CN(CCc3c([nH]c4ccccc34)[C@@](C(=O)OC)(c3cc4c(cc3OC)N(C=O)[C@H]3[C@@](O)(C(=O)OC)[C@H](OC(C)=O)[C@]5(CC)C=CCN6CC[C@]43[C@@H]65)C2)C1` [Vincristine]: 1.68 µM corresponded to half-maximal inhibition in data set [2] (Homo sapiens) (IC50). Further, the inhibition at 100 µM in data set [2] (Homo sapiens, highest concentration of each sample (Table 56: 100 μM, DNAh-Bio-Cy5 4.9 μM), read-out: Inhibition rate of cell proliferation at highest concentration itself) was 70.7%. `O=C1[O][Pt]2([NH][C@@H]3CCCC[C@H]3[NH]2)[O]C1=O` [Oxaliplatin] yielded an IC50 in data set [3] of 55.8 µM. With `O=c1cc(-c2ccccc2)oc2ccccc12` [Flavone], the IC50 in data set [4] is 12.6 µM. Take `C[C@H]1[C@@H](O)O[C@@H]2O[C@@]3(C)CC[C@H]4[C@H](C)CC[C@@H]1[C@@]24OO3` [DHA (dihydroartemisinin), Dihydroartemisinin]: the IC50 in data set [1] (Homo sapiens) was 20.2 µM.

In data set [5], `COc1cccc2c1C(=O)c1c(O)c3c(c(O)c1C2=O)C[C@@](O)(C(=O)CO)C[C@@H]3O[C@H]1C[C@H](N)[C@H](O)[C@H](C)O1` [doxorubicin] had an IC50 of 0.273 µM.

B1: D-7: conventional-sequence DNA nanoparticles, SEQ ID NO:117-119, no target head, thio modification (nucleic acid)
chain 1: CGCGCGCCCACGAGCGTTGCGGGCGCCGC
chain 2: GCGGCGCCCGCTTCGGCGGCAGGCGGC
chain 3: GCCGCCAGCCGCCCATAGCCGTGGGCGCGCG
modifications: DNA, backbone not given here; phosphorothioate (thio) modified DNA nanoparticle, further chemistry not fully specified
In the case of B1, in data set [6] (result over the 3 detections), the “Particle size Z-Ave, Experiment result” value is recorded as 12.33 d · nm (±1.57 d · nm). The “Particle size Z-Ave” value in data set [6] (single detections 1-3, DLS hydrodynamic size) was 10.76 nm·days and 13.9 nm·days and 10.36 nm·days.
